Article PMC11345399 (The Journal of Biological Chemistry, 2024)
Several values for one entry are separate records, joined by “and”; a condition that tells them apart may be missing. Equal entries are not always repeated.

Legend:
HRV-16 RdRp [1] = target: T1, HRV-16 RdRp (Human rhinovirus 16, UniProt Q82122); format: biochemical
MERS-CoV RdRp = MERS-CoV RdRp (Middle East respiratory syndrome-related coronavirus, UniProt K9N7C7); format: biochemical
PIV-5 RdRp = PIV-5 RdRp (Parainfluenza virus 5, UniProt Q88434); format: biochemical
[2] = target: human mitochondrial RNA polymerase (h-mtRNAP) (Homo sapiens, UniProt O00411); format: biochemical
MERS-CoV RdRp complex = MERS-CoV RdRp complex (Middle East respiratory syndrome-related coronavirus, UniProt K9N7C7)
HRV-16 RdRp [3] = target: T1, HRV-16 RdRp; format: biochemical; remark: listed apart in the source
HMPV RdRp = HMPV RdRp (Human metapneumovirus, UniProt Q6WB93); format: biochemical
RSV RdRp = RSV RdRp (Human respiratory syncytial virus A, UniProt P28887); format: biochemical
EV-71 RdRp [4] = format: biochemical
HPIV-3 RdRp = HPIV-3 RdRp (Human parainfluenza 3 virus, UniProt P12577); format: biochemical
HRV-16 RdRp (3Dpol) = HRV-16 RdRp (3Dpol) (Human rhinovirus 16, UniProt Q82122)
EV-71 RdRp [5] = format: biochemical; remark: listed apart in the source
PIV-5 RdRp complex = PIV-5 RdRp complex (Parainfluenza virus 5, UniProt Q88434)
HMPV RdRp complex = HMPV RdRp complex (Human metapneumovirus, UniProt Q6WB93)
RSV RdRp complex = RSV RdRp complex (Human respiratory syncytial virus A, UniProt P28887)
EV-71 RdRp (3Dpol) = EV-71 RdRp (3Dpol) (Enterovirus A71, UniProt E5RPG3)
SARS-CoV-2 RdRp = SARS-CoV-2 RdRp (Severe acute respiratory syndrome coronavirus 2, UniProt P0DTD1); format: biochemical
SARS-CoV-2 RdRp complex = SARS-CoV-2 RdRp complex (Severe acute respiratory syndrome coronavirus 2, UniProt P0DTD1)
EV-71 RdRp [6] = format: biochemical; remark: listed apart in the source
HRV-16 RdRp [7] = target: T1, HRV-16 RdRp; format: biochemical; remark: listed apart in the source

Chain of human mitochondrial RNA polymerase (h-mtRNAP) (O00411 42-1230 limits assumed): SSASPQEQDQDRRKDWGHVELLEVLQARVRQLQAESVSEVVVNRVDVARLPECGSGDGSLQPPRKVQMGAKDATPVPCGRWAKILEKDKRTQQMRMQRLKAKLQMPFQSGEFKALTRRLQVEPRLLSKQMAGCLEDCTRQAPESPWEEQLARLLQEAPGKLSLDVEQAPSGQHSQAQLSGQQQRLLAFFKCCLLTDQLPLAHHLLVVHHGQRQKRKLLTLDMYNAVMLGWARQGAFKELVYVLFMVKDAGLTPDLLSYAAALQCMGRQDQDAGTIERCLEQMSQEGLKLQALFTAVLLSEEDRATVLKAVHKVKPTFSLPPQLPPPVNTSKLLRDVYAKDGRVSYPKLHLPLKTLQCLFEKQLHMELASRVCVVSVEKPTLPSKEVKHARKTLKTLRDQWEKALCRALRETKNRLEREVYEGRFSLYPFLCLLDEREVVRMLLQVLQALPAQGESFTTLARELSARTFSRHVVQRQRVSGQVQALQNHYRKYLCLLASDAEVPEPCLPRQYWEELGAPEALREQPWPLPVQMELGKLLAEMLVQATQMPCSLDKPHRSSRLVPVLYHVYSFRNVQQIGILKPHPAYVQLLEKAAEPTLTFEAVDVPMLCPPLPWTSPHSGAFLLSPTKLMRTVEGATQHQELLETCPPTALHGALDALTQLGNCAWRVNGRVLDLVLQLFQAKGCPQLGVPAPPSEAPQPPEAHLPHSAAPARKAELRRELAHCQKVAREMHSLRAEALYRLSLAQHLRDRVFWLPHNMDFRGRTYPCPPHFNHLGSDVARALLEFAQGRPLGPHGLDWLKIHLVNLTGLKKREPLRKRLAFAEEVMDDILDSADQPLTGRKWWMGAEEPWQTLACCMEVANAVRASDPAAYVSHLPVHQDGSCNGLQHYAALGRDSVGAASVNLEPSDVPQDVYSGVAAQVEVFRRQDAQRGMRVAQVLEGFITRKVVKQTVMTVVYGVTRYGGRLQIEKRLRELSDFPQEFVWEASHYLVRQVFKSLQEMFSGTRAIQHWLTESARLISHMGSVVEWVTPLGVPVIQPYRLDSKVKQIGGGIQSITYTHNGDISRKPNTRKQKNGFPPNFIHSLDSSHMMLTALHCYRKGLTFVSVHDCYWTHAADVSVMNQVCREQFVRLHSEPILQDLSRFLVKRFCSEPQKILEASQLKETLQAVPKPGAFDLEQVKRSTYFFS

With `N#C[C@]1(COP(=O)(O)OP(=O)(O)OP(=O)(O)O)O[C@@H](c2ccc3c(N)ncnn23)[C@H](O)[C@@H]1O` [GS-646939] the “Inhibition (fold) vs Template A” value (HRV-16 RdRp [1]) was ~2 fold and 2.0 fold, the “UTP” value (HRV-16 RdRp [1]) was 1.0 µM and the “Vmax (product fraction) of UTP incorporation at i + 1” value (“Vmax (product fraction)” below) (MERS-CoV RdRp) was 0.91 ± 0.10. The “Pattern of inhibition of RNA primer extension after incorporation at position i” value (“Pattern of inhibition … at position i” below) (PIV-5 RdRp) was “immediate chain termination”, the “Vmax (product fraction)” value (PIV-5 RdRp) was 0.058 ± 0.080 and the “Selectivity (fold), Vmax/Km ATP over Vmax/Km analog” value [2] was 1538 fold. The “Selectivity (fold), Vmax/Km ATP over Vmax/Km analog” value (MERS-CoV RdRp complex) was 1.17 fold, the “CI average (CIavg) ± standard deviation” value (HRV-16 RdRp [3]) was 0.04 and the “Preference for GS-646939 over GS-443902 under competitive conditions” value (HRV-16 RdRp [3]) was “greater than 30 fold”. The “Pattern of inhibition … at position i” value (HMPV RdRp) was “immediate chain termination”, the “Vmax (product fraction)” value (HMPV RdRp) was 0.087 ± 0.030 and the “Pattern of inhibition … at position i” value (RSV RdRp) was “immediate chain termination”. For the same molecule, the “Vmax (product fraction)” value (RSV RdRp) was 0.15 ± 0.0029, the “Inhibition (fold) of UTP incorporation across embedded analog” value (EV-71 RdRp [4]) was ~9 fold and the “Pattern of inhibition … at position i” value (HPIV-3 RdRp) was “immediate chain termination”. For the same molecule, the “Vmax (product fraction)” value (HPIV-3 RdRp) was 0.61 ± 0.0099, the “Incorporated more efficiently than natural ATP counterpart” value (HRV-16 RdRp (3Dpol)) was 20-50 fold and the “CI average (CIavg) ± standard deviation” value (EV-71 RdRp [5]) was 0.07. For the same molecule, the “Preference for GS-646939 over GS-443902 under competitive conditions” value (EV-71 RdRp [5]) was “greater than 30 fold”, the “Selectivity (fold), Vmax/Km ATP over Vmax/Km analog” value (PIV-5 RdRp complex) was 5.05 fold and the “Selectivity (fold), Vmax/Km ATP over Vmax/Km analog” value (HMPV RdRp complex) was 1.73 fold. For the same molecule, the “Selectivity (fold), Vmax/Km ATP over Vmax/Km analog” value (RSV RdRp complex) was 1.58 fold, the “Incorporated more efficiently than natural ATP counterpart” value (EV-71 RdRp (3Dpol)) was 20-50 fold and the “Vmax (product fraction)” value (SARS-CoV-2 RdRp) was 0.79 ± 0.036. The “Selectivity (fold), Vmax/Km ATP over Vmax/Km analog” value (SARS-CoV-2 RdRp complex) was 1.37 fold, the “Pattern of inhibition … at position i” value (EV-71 RdRp [6]) was “immediate chain-termination” and the “Vmax (product fraction)” value (EV-71 RdRp [6]) was 0.81 ± 0.017. The “Pattern of inhibition … at position i” value (HRV-16 RdRp [7]) was “immediate chain-termination” and the “Vmax (product fraction)” value (HRV-16 RdRp [7]) was 0.83 ± 0.012.
